Data from the supplement of paper PMC11061612.

Experiments:
Experiment in all cases: Bliss excess, mean over the matrix (fraction); higher = more synergy
[1] = tested on: TE-5 (Esophageal Squamous Cell Carcinoma)
In short: (§1)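 Bliss excess equals the observed combination effect minus the expected value EA + EB − EA·EB, where EA and EB are the effects of each agent alone. Combination Emax is the second-highest inhibition within the matrix. Inhibition was scaled from CellTiter-Glo 2.0 luminescence, with 0 set by vehicle wells and 1 by blank wells, after 72 hours of two-drug dosing of cells plated in 1536-well plates.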

[2] = tested on: DSH1 (Bladder Carcinoma)
In short: as §1

[3] = tested on: IHH-4 (Thyroid Gland Carcinoma)
In short: as §1

[4] = tested on: SW1783 (Low Grade Glioma)
In short: as §1

[5] = tested on: NALM-6 (B-Lymphoblastic Leukemia)
In short: as §1

[6] = tested on: NCI-H2595 (Mesothelioma)
In short: as §1

[7] = tested on: KARPAS-620 (Plasma Cell Myeloma)
In short: as §1

[8] = tested on: SK-N-FI (Neuroblastoma)
In short: as §1

[9] = tested on: LS-513 (Colorectal Carcinoma)
In short: as §1

[10] = tested on: MFH-ino (Other Solid Carcinomas)
In short: as §1

[11] = tested on: KATOIII (Gastric Carcinoma)
In short: as §1

[12] = tested on: DB (B-Cell Non-Hodgkin's Lymphoma)
In short: as §1

[13] = tested on: MDA-MB-231 (Breast Carcinoma)
In short: as §1

[14] = tested on: G-292-Clone-A141B1 (Osteosarcoma)
In short: as §1

[15] = tested on: SW1088 (Low Grade Glioma)
In short: as §1

[16] = tested on: NCI-H211 (Small Cell Lung Carcinoma)
In short: as §1

[17] = tested on: U-266 (Plasma Cell Myeloma)
In short: as §1

[18] = tested on: HT-29 (Colorectal Carcinoma)
In short: as §1

[19] = tested on: OCI-AML2 (Acute Myeloid Leukemia)
In short: as §1

[20] = tested on: SW1990 (Pancreatic Carcinoma)
In short: as §1

Row | Compound | Bliss excess [1] | Bliss excess [2] | Bliss excess [3] | Bliss excess [4] | Bliss excess [5] | Bliss excess [6] | Bliss excess [7] | Bliss excess [8] | Bliss excess [9] | Bliss excess [10] | Bliss excess [11] | Bliss excess [12] | Bliss excess [13] | Bliss excess [14] | Bliss excess [15] | Bliss excess [16] | Bliss excess [17] | Bliss excess [18] | Bliss excess [19] | Bliss excess [20]
1 | CS(=O)(=O)CCNCc1ccc(-c2ccc3ncnc(Nc4ccc(OCc5cccc(F)c5)c(Cl)c4)c3c2)o1 [Lapatinib] + Cn1cnc2c(F)c(Nc3ccc(Br)cc3Cl)c(C(=O)NOCCO)cc21 [Selumetinib] (first compound max 10 µM, 7x7, partner max 10 µM) | -0.0241 | -0.067 | -0.0136 | -0.0252 | 0.021 | -0.0548 | 0.0746 | 0.0179 | -0.054 | -0.0468 | -0.0223 | 0.0388 | -0.0236 | -0.0566 | -0.0524 | 0.0084 | 0.0347 | 0.0362 | -0.0296 | 0.0373
2 | CN(CCO)CC[C@H](CSc1ccccc1)Nc1ccc(S(=O)(=O)NC(=O)c2ccc(N3CCC([C@@H](O)c4ccccc4-c4ccc(Cl)cc4)CC3)cc2)cc1S(=O)(=O)C(F)(F)F [AZD4320] + CS(=O)(=O)CCNCc1ccc(-c2ccc3ncnc(Nc4ccc(OCc5cccc(F)c5)c(Cl)c4)c3c2)o1 [Lapatinib] (first compound max 1 µM, 7x7, partner max 10 µM) | 0.0542 | 0.0511 | -0.0096 | 0.0765 | -0.0112 | 0.0034 | 0.0697 | 0.057 | 0.0667 | -0.0732 | -0.0407 | 0.0048 | 0.0241 | 0.0467 | -0.0544 | 0.0409 | -0.052 | -0.0113 | 0.0843 | -0.0093
3 | CC1(C)CCC(CN2CCN(c3ccc(C(=O)NS(=O)(=O)c4ccc(NCC5CCOCC5)c([N+](=O)[O-])c4)c(Oc4cnc5[nH]ccc5c4)c3)CC2)=C(c2ccc(Cl)cc2)C1 [Venetoclax] + CS(=O)(=O)CCNCc1ccc(-c2ccc3ncnc(Nc4ccc(OCc5cccc(F)c5)c(Cl)c4)c3c2)o1 [Lapatinib] (first compound max 1 µM, 7x7, partner max 10 µM) | -0.0388 | -0.021 | -0.0082 | -0.0232 | 0.0563 | -0.0574 | 0.0569 | -0.0126 | -0.0203 | -0.0699 | -0.0386 | 0.0803 | -0.034 | -0.045 | -0.0313 | -0.0037 | -0.0555 | -0.0493 | 0.0327 | -0.0384
4 | Cc1c2c(nn1C)CSCc1cc(n(C)n1)CSc1cc(c3ccccc3c1)OCCCc1c(C(=O)O)n(C)c3c-2c(Cl)ccc13 [AZD5991] + CS(=O)(=O)CCNCc1ccc(-c2ccc3ncnc(Nc4ccc(OCc5cccc(F)c5)c(Cl)c4)c3c2)o1 [Lapatinib] (first compound max 1 µM, 7x7, partner max 10 µM) | 0.0198 | 0.0013 | 0.011 | -0.0106 | -0.101 | -0.0398 | 0.0054 | -0.0808 | 0.0305 | -0.0513 | -0.0787 | 0.0597 | -0.0852 | -0.0185 | -0.0137 | -0.0118 | -0.0501 | -0.0216 | 0.0415 | 0.0149
5 | O=C(c1cc(Cc2n[nH]c(=O)c3ccccc23)ccc1F)N1CCN(C(=O)C2CC2)CC1 [Olaparib] + COc1nnc2ccc(N3CCC(c4ccc(OCCN5CCN(C)C(=O)[C@H]5C)cc4)CC3)nn12 [AZD5153] (first compound max 10 µM, 7x7, partner max 1 µM) | -0.052 | -0.0925 | -0.0058 | -0.0177 | -0.0547 | -0.12 | -0.0365 | -0.0577 | -0.0628 | -0.07 | -0.0584 | 0.0255 | -0.0586 | -0.0523 | -0.0563 | -0.0168 | -0.0332 | -0.0406 | -0.02 | -0.0669
6 | C[C@@H](Nc1cc(F)cc(F)c1)c1cc(C(=O)N(C)C)cc2c(=O)cc(N3CCOCC3)oc12 [AZD8186] + C1CN(CCC1(C(=O)N[C@@H](CCO)C2=CC=C(C=C2)Cl)N)C3=NC=NC4=C3C=CN4 [AZD5363] (first compound max 10 µM, 7x7, partner max 10 µM) | 0.0152 | -0.0297 | 0.0233 | -0.0125 | -0.0357 | -0.0537 | 0.0152 | -0.0299 | -0.0681 | -0.0258 | -0.0739 | -0.0191 | 0.0036 | -0.0518 | -0.0474 | -0.0006 | -0.0427 | -0.0172 | -0.0007 | -0.0436
7 | N#Cc1cnc(Nc2cc(NC[C@H]3CNCCO3)c(C(F)(F)F)cn2)cn1 [SRA737] + O=c1[nH]cc(F)c(=O)[nH]1 [5-Fluorouracil] (first compound max 10 µM, 7x7, partner max 20 µM) | 0.0052 | 0.0051 | 0.098 | 0.0143 | 0.0117 | -0.0448 | 0.0096 | -0.0627 | -0.0287 | 0.0373 | -0.0805 | -0.0088 | -0.0492 | -0.0458 | 0.0081 | 0.0823 | 0.0562 | 0.021 | 0.0247 | -0.0577
